We go through two compounds from patent US20070059242A1, “METHODS TO IDENTIFY THERAPEUTIC AGENTS” (priority 2005, published 2007).

Like-named read-outs stand apart in the source and are kept apart here.

Series [1] deals with WI-L2 human B-lymphocyte line. Put plainly: LDH release cytotoxicity assay, WI-L2. The class given is cell-based. The following applies: Homo sapiens; WIL2; LDH release, 0-100 μM, 18 h. The procedure:
(§1) Cytotoxicity assays. WI-L2 human B-lymphocyte line, HAAE-1 human abdominal aortic endothelial line, MH-S murine alveolar macrophage line, and J774A.1 murine tissue macrophage line were obtained from the ATCC. Human aortic endothelial cells (HAEC) and human vascular smooth muscle cells (VSMS) were obtained from Cambrex Bio Science. Jurkat E6-1T-lymphocytes were kindly provided by Dr. J. Kaye (The Scripps Research Institute). Cells were cultured in ATCC-recommended media with 10% fetal calf serum. Cells were incubated in a controlled atmosphere at 37° C., with 5 or 7% CO2. For lactate dehydrogenase (LDH) release assays, adherent cells were harvested either by addition of 0.05% trypsin/EDTA or by scraping. The cells obtained were seeded onto 96-well microtiter plates (25,000 cells/well) and allowed to recover for 24-48 h. Cells were washed gently and media replaced with fresh media containing 5% fetal calf serum. […] Cytotoxicity was then determined by measuring lactate dehydrogenase (LDH) release from cells in culture. […] 100% Cytotoxicity was defined as the maximum amount of LDH released by dead cells as shown by trypan blue exclusion, or the highest amount of LDH detected upon lysis of cells by 0.9% Triton X-100. The IC50 values were determined by comparison of the raw duplicate data for concentration versus cytotoxicity (%) to non-linear regression analysis (Hill plot) using Graphpad v3.0 software for Macintosh.
The following cell lines were employed in this study: a human B-lymphocyte (WI-L2) described in Levy et al., Cancer 22, 517 (1968); a T-lymphocyte cell line (Jurkat E6.1) described in Weiss et al., J. Immunol. 133, 123 (1984); a vascular smooth muscle cell line (VSMC) and an abdominal aorta endothelial (HAEC) cell line described in Folkman et al., Proc. Natl. Acad. Sci. U.S.A. 76, 5217 (1979); a murine tissue macrophage (J774A.1) described in Ralph et al., J. Exp. Med. 143, 1528 (1976); and an alveolar macrophage cell line (MH-S) described in Mbawuike et al., J. Leukoc. Biol. 46, 119 (1989).
For orientation: LDH leaks from cells whose membrane has failed.

For series [2], the system named is vascular smooth muscle cell line (VSMC). Nature of the series: LDH release cytotoxicity assay, VSMC. The format is cell-based. As to conditions: Homo sapiens, 18 h. The protocol: as §1, with “h.” for “h. Cells were washed gently and media replaced with fresh media containing 5% fetal calf serum.”, “Macintosh. […]” for “Macintosh.”
In series [3] the test system is J774A.1 murine tissue macrophage line. Nature of the series: LDH release cytotoxicity assay, J774A.1. The class given is cell-based. The procedure:
as §1, with “h.” for “h. Cells were washed gently and media replaced with fresh media containing 5% fetal calf serum.”

Series [4] deals with MH-S murine alveolar macrophage line. Put plainly: LDH release cytotoxicity assay, MH-S. The format is cell-based. The following applies: 18 h. The procedure:
as §1, with “h.” for “h. Cells were washed gently and media replaced with fresh media containing 5% fetal calf serum.”

In another series the test system is neuronal cell lines. Nature of the series: Cytotoxicity towards neuronal cell lines (similar procedures). The class given is cell-based.
For series [5], the system named is Class A scavenger receptor (SR-A). Nature of the series: Scavenger receptor expression by flow cytometry, SR-A. The class given is cell-based, murine. As to conditions: for upregulation of SR-A: J774A.1, 25 μM with LDL (100 μg/ml protein), 6 h; for SR-A expression: cultured macrophages, in the absence of LDL. The procedure: Cell surface CD36 and SR-A were measured by flow cytometry using CD36 (BD Biosciences Pharmingen, San Diego, Calif.) and CD204 (Serotec, Oxford, UK) specific monoclonal antibodies. See Liao et al. (2000) Arterioscler. Thromb. Vasc. Biol. 20: 1968-75; Hu et al. (1996) Blood 87: 2020-28. Murine macrophage J774A.1 cells were serum-starved overnight in media with 0.5% BSA. Cells (1×10^6) treated with cholesterol ozonation products or cholesterol ozonation product complexed with LDL for specified times were then washed twice with PBS. After harvesting the cells by scraping, they were fixed with 6% paraformaldehyde for 20 min. Cells were then resuspended in PBS containing 2% heat-inactivated FCS, 0.05% NaN3 and appropriate primary antibody, antibody conjugate or isotype control (1:100 dilution) and incubated on ice for 30 min. Expression of either CD36 or SR-A was determined with CD36 (BD Biosciences Pharmingen, San Diego, Calif.) and CD204 (Serotec, Oxford, U.K.) specific monoclonal antibodies, respectively. After washing off the primary antibody, secondary antibodies were added, cells were washed again, then analyzed on a FACS calibur 2 (Becton Dickinson, Sparks, Md.) flow cytometer and analyzed by CellQuant software. Results were expressed as mean fluorescence intensity±standard error of the mean (SEM) of at least duplicate determinations. Significance was determined using a student two-tail t test, with (*) indicating p<0.05, and (**) indicating p<0.01 versus the control.
For orientation: Flow cytometry measures light scatter and fluorescence of single cells or particles in a stream.

Another series has as its system VCAM-1. Put plainly: Endothelial adhesion molecule expression ELISA, VCAM-1. The class given is cell-based, human. The following applies: for integrin (VCAM-1) expression: HAAE-1, not complexed with LDL. The procedure:
(§2) Endothelial cell surface adhesion molecule expression was measured by ELISA, using anti-human CD54 (ICAM-1), CD106 (VCAM-1) and CD62E (E-Selectin) antibodies (Leinco Technologies, Inc., St. Louis, Mo.). The ELISA method was modified from previously described procedures.
(§3) Cells were then incubated with antibodies to VCAM-1, E-selectin, or ICAM-1 diluted 1:400 in PBS containing 5% FCS at 37° C. for 30 min. Wells were washed two times with PBS, then incubated with horseradish peroxidase (HRP)-conjugated goat anti-mouse IgG (Southern Biotechnology Associates, Birmingham, Ala., USA) in PBS/5% FCS at 37° C. for 30 min. The wells were washed four times with PBS, then incubated with H2O2/3,3′,5,5′-tetramethyl-benzidine peroxidase substrate (Pierce Chemical, Rockford, Ill., USA) for 30 min in the dark. The reaction was stopped by adding 25 μl of 8 N H2SO4, and the plates read on a microplate reader, blanking on wells stained with only secondary antibody. Each assay was performed in triplicate and the data are reported as the mean±SEM as a percentage of the expression level of the vehicle. To study the effect of cholesterol ozonation product 5a concentration (5-50 μM) on E-selectin expression, the assay was performed in an identical fashion as described above, with each point being the mean±SEM of at least duplicate measurements.
For orientation: An ELISA detects its analyte on a solid surface through an enzyme-linked reagent.

The test system of a further series is ICAM-1. Nature of the series: Endothelial adhesion molecule expression ELISA, ICAM-1. The class given is cell-based, human. As to conditions: for integrin (ICAM-1) expression: HAAE-1, not complexed with LDL. The procedure:
as §2, §3

In another series the test system is THP-1 monocytes. Nature of the series: Monocyte morphology changes (differentiation into macrophages). The class given is cell-based, human. The following applies: for THP-1 cell adherence (differentiation into macrophages): 12.5 or 25 μM, 7 days. The protocol: THP-1 monocytes in suspension were plated in 8-well chambered slides. […] Media containing appropriate treatment compounds was replaced after 4 days. […]

Setting [6] is: HAAE-1, 25 μM in the presence of LDL, or lipoprotein alone.

What is called IC50 is the concentration that gives 50% inhibition. Consider `CC(C)CCC[C@@H](C)[C@H]1CCC2C(CC=O)C([C@@]3(C)CC[C@H](O)CC3=O)CC[C@@]21C` (stereo partly drawn) [4a, 3β-Hydroxy-5-oxo-5,6-secocholestan-6-al], for which the concentration for half-maximal inhibition (IC50) in [1] was 10.9 ± 1.6 µM; in series [2] (LDH release, 0-100 μM, read-out: IC50) it was 21.9 ± 2.2 µM; in series [3] (J774A.1, LDH release, 0-100 μM, 18 h, read-out: IC50), 15.6 ± 2.1 µM; in series [4] (MH-S, LDH release, 0-100 μM, read-out: IC50), 11.2 ± 1.2 µM. Further, the “cytotoxic towards neuronal cell lines” value with neuronal cell lines was “cytotoxic”. The “upregulation of SR-A” value in [5] is on record as “approximately 3 fold”. Also, in [5], the SR-A expression entry is given as “did not increase expression”. For the same compound, the VCAM-1 levels entry in the series with VCAM-1 (setting [6]) is “remain unchanged”. Also, the “integrin (VCAM-1) expression” value in the series with VCAM-1 is given as “no effects”. Further, the ICAM-1 levels result with ICAM-1 (setting [6]) is reported as “remain unchanged”. Further, the “integrin (ICAM-1) expression” value in the series with ICAM-1 is reported as “no effects”. Also, the “THP-1 cell adherence (differentiation into macrophages)” value in the series with THP-1 monocytes is “induced no cell adherence”.

In the case of `CC(C)CCC[C@@H](C)[C@H]1CCC2C3C(CC[C@@]21C)[C@@]1(C)CC[C@H](O)C[C@@]1(O)[C@@H]3C=O` (stereo partly drawn) [5a, 3β-Hydroxy-5β-hydroxy-B-norcholestane-6β-carboxaldehyde], the IC50 came to 17.7 ± 2.3 µM in [1]; 29.8 ± 2.8 µM in [2]; 26.1 ± 2.8 µM in [3] (Mus musculus, J774.A1, 18 h); 13.6 ± 1.1 µM in [4] (Mus musculus, Macrophage). The “cytotoxic towards neuronal cell lines” value in the series on neuronal cell lines was “cytotoxic”. The “upregulation of SR-A” value in series [5] is on record as “approximately 3 fold”. The SR-A expression result in series [5] is reported as “did not increase expression”. In addition, the “integrin (VCAM-1) expression” value in the series with VCAM-1 is on record as “no effects”. Also, the “integrin (ICAM-1) expression” value in the series with ICAM-1 is “no effects”. The “concentration that causes THP-1 cell differentiation” value in the series on THP-1 monocytes was 25 µM. For the same compound, the “THP-1 cell adherence (differentiation into macrophages)” value in the series on THP-1 monocytes is recorded as “began to adhere after 4 days”.
